# Read-outs that look alike come from different tables or passages of the source.
# Columns and labels:
# [1] = target: T1, soybean lipoxygenase (LOX-1) (Glycine max, UniProt P08170); assay: Soybean lipoxygenase inhibition study; assay type: biochemical; conditions: for LOX inhibition (%): % inhibition at 100 µM; for inhibition at 100 µM: read-out: LOX inhibition (%)
# T1 construct: purchased Sigma Chemical, Co. (St Louis, MO, USA)
# T1 sequence (P08170 1-839): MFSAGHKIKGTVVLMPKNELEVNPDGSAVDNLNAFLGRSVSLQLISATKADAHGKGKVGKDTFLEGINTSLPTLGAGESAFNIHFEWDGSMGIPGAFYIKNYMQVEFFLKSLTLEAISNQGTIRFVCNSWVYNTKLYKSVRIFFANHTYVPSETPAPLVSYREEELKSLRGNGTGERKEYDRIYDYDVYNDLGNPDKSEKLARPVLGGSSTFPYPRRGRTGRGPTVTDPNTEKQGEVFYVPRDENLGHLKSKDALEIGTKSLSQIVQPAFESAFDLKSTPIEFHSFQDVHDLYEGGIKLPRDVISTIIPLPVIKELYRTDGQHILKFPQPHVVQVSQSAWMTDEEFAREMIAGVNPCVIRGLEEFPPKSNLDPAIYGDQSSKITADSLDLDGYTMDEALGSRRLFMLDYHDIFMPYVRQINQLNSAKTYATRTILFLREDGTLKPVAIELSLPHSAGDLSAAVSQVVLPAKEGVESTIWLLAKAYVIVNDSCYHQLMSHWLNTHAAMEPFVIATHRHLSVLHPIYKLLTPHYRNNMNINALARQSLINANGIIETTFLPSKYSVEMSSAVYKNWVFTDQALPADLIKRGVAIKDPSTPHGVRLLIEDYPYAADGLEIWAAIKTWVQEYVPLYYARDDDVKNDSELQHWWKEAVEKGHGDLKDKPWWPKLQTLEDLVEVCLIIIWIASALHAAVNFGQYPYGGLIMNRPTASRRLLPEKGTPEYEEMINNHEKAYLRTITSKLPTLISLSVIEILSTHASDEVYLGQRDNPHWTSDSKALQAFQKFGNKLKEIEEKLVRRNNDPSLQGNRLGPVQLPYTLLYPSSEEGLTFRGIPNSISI
# Procedure: Our group evaluated an in vitro study as reported previously. The tested hybrids were incubated at room temperature with sodium linoleate (100 µM) and 200 µL of enzyme solution (1/9 X 10^-4 w/v in saline). […] Different concentrations were used for the determination of IC50. A blank determination was used as a negative control.
# Due to the limited work on sufficiently purified human ALOX-5 isoenzyme, most of the published research was performed on the soybean homolog. […] This study used the soybean isoenzyme LOX-1, which exerts maximal activity at pH 9.0 [72].
# ovine COX-2 = target: T2, ovine COX-2 (Ovis aries, UniProt P79208); assay: Cyclooxygenase-2 inhibition study; assay type: biochemical; conditions: for IC50: read-out: COX-2 inhibition (IC50); for COX-2 inhibition (%): % inhibition at 100 µM
# T2 construct: purchased Cayman (USA)
# T2 sequence (P79208 17-603): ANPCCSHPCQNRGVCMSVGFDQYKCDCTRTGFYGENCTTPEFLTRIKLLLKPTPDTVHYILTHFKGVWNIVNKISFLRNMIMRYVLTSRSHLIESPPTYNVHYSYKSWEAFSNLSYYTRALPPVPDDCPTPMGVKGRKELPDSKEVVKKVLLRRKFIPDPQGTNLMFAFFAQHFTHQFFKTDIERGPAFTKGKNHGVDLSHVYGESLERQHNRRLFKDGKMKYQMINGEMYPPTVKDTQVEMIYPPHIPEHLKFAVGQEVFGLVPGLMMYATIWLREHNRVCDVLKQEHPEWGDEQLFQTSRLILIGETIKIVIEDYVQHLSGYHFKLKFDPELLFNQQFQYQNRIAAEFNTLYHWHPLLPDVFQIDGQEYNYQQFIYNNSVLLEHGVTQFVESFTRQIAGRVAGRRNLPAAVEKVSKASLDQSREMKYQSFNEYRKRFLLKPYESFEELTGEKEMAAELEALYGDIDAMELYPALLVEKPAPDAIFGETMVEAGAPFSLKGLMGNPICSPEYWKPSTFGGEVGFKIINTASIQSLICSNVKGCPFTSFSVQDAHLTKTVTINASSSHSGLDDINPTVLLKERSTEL
# Procedure: The in vitro study of cyclooxygenase (COX) activity was determined by using arachidonic acid (AA) as the substrate and N,N,N’,N’-tetramethylphenylenediamine (TMPD) as the co-substrate. […] The absorption due to the spontaneous oxidation of TMPD was subtracted from the initial rate of oxidation observed in the presence of AA. […] A blank determination was used first to serve as a negative control. Indomethacin was used as a reference COX-2 inhibitor (positive control).
# The role of COX-2 in neurodegenerative diseases has been reported, and COX-2 inhibition is considered of high importance as a therapeutic tool. The designed derivatives were tested for their COX-2 inhibition activity on the ovine COX-2 enzyme. […] Indomethacin was used as a reference compound.
# [2] = cited from earlier work
# [3] = Inhibition of linoleic acid peroxidation (AAPH-induced)
# Procedure: Our group evaluated the in vitro study as reported previously. Ten 16 mM sodium linoleate solution microliters were added to the UV cuvette containing 93 µL of a 0.05 M phosphate buffer, pH 7.4, and 10 µL of the tested compounds (final concentration 100 µM). The oxidation reaction started at 37 °C under air by adding 50 µL of the free radical initiator AAPH (40 mM). Oxidation was carried out and monitored at 234 nm. DMSO under the same conditions was used as a negative control. Trolox was used as the appropriate standard (positive control). The results are given in Table S1 in the supplementary material.
# We used the water-soluble 2, 2’-azobis(2-amidinopropane) hydrochloride (AAPH) to generate in vitro peroxyl radicals through spontaneous thermal decomposition, which resembles cellular lipid peroxidation due to the activity of the undertaken radicals. The anti-lipid peroxidation activities were compared to a well-known antioxidant, i.e., Trolox (Table S1 in the supplementary material). […] In general, the anti-lipid peroxidation ranged from 8-99%. Except for acids 11, 12, 17, 19, 21, 22, 24, 25, and 28, which present high antioxidant activities (on the high % level), the other cinnamic acids present low or medium activity.
# [4] = read-out: LOX inhibition (IC50)
structure (smiles),measurement,setting,value
O=C(O)/C=C/c1ccc(OCc2ccc(Br)cc2)cc1 [Compound 11],IC50,[1],100 µM
same,inhibition at 100 µM,ovine COX-2,17%
same,"AAPH inhibition (%, at 100 µM)",[2],84%
O=C(O)/C=C/c1cccc(Oc2ccccc2)c1 [Compound 12],inhibition at 100 µM,ovine COX-2,39%
same,"AAPH inhibition (%, at 100 µM)",[2],84%
CCOC(=O)CNC(=O)/C=C/c1cccc(Oc2ccccc2)c1 [Compound 12a],"AAPH inhibition (%, at 100 µM)",[3],48%
same,LOX inhibition (%),[1],36%
same,IC50,ovine COX-2,55 µM
O=C(O)/C=C/c1ccc(C(F)(F)F)cc1 [Compound 13],"AAPH inhibition (%, at 100 µM)",[3],37%
same,inhibition at 100 µM,[1],42%
same,inhibition at 100 µM,ovine COX-2,32%
COC(=O)CC[C@H](NC(=O)/C=C/c1cccc2ccccc12)C(=O)OC [Compound 17c],"AAPH inhibition (%, at 100 µM)",[3],57%
same,IC50,[1]; [4],68 µM
same,IC50,ovine COX-2,62 µM
COc1ccc(/C=C/C(=O)O)cc1OC [Compound 18],inhibition at 100 µM,ovine COX-2,19%
same,"AAPH inhibition (%, at 100 µM)",[2],86%
CCOC(=O)CNC(=O)/C=C/c1ccc(OC)c(OC)c1 [Compound 18a],"AAPH inhibition (%, at 100 µM)",[3],99%
same,IC50,[1]; [4],62.5 µM
same,COX-2 inhibition (%),ovine COX-2,14%
COc1ccc(OC)c(/C=C/C(=O)O)c1 [Compound 19],"AAPH inhibition (%, at 100 µM)",[3],88%
same,IC50,[1]; [4],60 µM
same,inhibition at 100 µM,ovine COX-2,28%
O=C(O)/C=C/c1ccc2c(c1)OCO2 [Compound 20],"AAPH inhibition (%, at 100 µM)",[3],31%
same,inhibition at 100 µM,[1],27%
CCOC(=O)CNC(=O)/C=C/c1ccc2c(c1)OCO2 [Compound 20a],"AAPH inhibition (%, at 100 µM)",[3],70%
same,LOX inhibition (%),[1],6%
same,IC50,ovine COX-2,75 µM
COC(=O)CCCNC(=O)/C=C/c1ccc2c(c1)OCO2 [Compound 20b],"AAPH inhibition (%, at 100 µM)",[3],9%
same,IC50,[1]; [4],67.5 µM
COC(=O)CC[C@H](NC(=O)/C=C/c1ccc2c(c1)OCO2)C(=O)OC [Compound 20c],"AAPH inhibition (%, at 100 µM)",[3],20%
same,LOX inhibition (%),[1],19%
O=C(O)/C=C/c1cccs1 [Compound 21],"AAPH inhibition (%, at 100 µM)",[2],60%
CCOC(=O)CNC(=O)/C=C/c1cccs1 [Compound 21a],"AAPH inhibition (%, at 100 µM)",[3],15%
same,LOX inhibition (%),[1],20%
same,IC50,ovine COX-2,55 µM
COC(=O)CCCNC(=O)/C=C/c1cccs1 [Compound 21b],"AAPH inhibition (%, at 100 µM)",[3],73%
same,LOX inhibition (%),[1],0%
same,COX-2 inhibition (%),ovine COX-2,38%
COC(=O)CC[C@H](NC(=O)/C=C/c1cccs1)C(=O)OC [Compound 21c],"AAPH inhibition (%, at 100 µM)",[3],41%
same,IC50,[1]; [4],100 µM
"O=C(O)/C=C/c1ccccc1 [Compound 22, cinnamic acid]",inhibition at 100 µM,ovine COX-2,4%
same,"AAPH inhibition (%, at 100 µM)",[2],78%
CCOC(=O)CNC(=O)/C=C/c1ccccc1 [Compound 22a],"AAPH inhibition (%, at 100 µM)",[3],5%
same,LOX inhibition (%),[1],0%
same,IC50,ovine COX-2,5 µM
COC(=O)CC[C@H](NC(=O)/C=C/c1ccccc1)C(=O)OC [Compound 22c],"AAPH inhibition (%, at 100 µM)",[3],39%
same,LOX inhibition (%),[1],10%
COC(=O)CC[C@H](NC(=O)/C=C/C=C/c1ccccc1)C(=O)OC [Compound 23c],"AAPH inhibition (%, at 100 µM)",[3],25%
same,IC50,[1]; [4],75 µM
same,COX-2 inhibition (%),ovine COX-2,47%
CCOC(=O)CNC(=O)/C=C/c1ccc(O)c(OC)c1 [Compound 24a],"AAPH inhibition (%, at 100 µM)",[3],82%
same,IC50,[1]; [4],100 µM
COC(=O)CCCNC(=O)/C=C/c1ccc(O)c(OC)c1 [Compound 24b],"AAPH inhibition (%, at 100 µM)",[3],34%
same,IC50,[1]; [4],100 µM
COC(=O)CC[C@H](NC(=O)/C=C/c1ccc(O)c(OC)c1)C(=O)OC [Compound 24c],"AAPH inhibition (%, at 100 µM)",[3],12%
same,IC50,[1]; [4],75 µM
same,COX-2 inhibition (%),ovine COX-2,9%
"O=C(O)/C=C/c1ccc(O)cc1 [Compound 25, p-coumaric acid]","AAPH inhibition (%, at 100 µM)",[3],76%
same,IC50,[1],10 µM
same,IC50,ovine COX-2,62 µM
COC(=O)CCCNC(=O)/C=C/c1ccc(O)cc1 [Compound 25b],"AAPH inhibition (%, at 100 µM)",[3],66%
same,LOX inhibition (%),[1],10%
COC(=O)CC[C@H](NC(=O)/C=C/c1ccc(O)cc1)C(=O)OC [Compound 25c],"AAPH inhibition (%, at 100 µM)",[3],78%
same,IC50,[1]; [4],63 µM
COC(=O)CC[C@H](NC(=O)/C=C/c1ccc(F)cc1)C(=O)OC [Compound 27c],"AAPH inhibition (%, at 100 µM)",[3],10%
same,LOX inhibition (%),[1],8%
same,IC50,ovine COX-2,72.5 µM
CCOC(=O)CNC(=O)/C=C/c1ccc(O)c(O)c1 [Compound 28a],"AAPH inhibition (%, at 100 µM)",[3],47%
same,IC50,[1]; [4],70 µM
same,inhibition at 100 µM,ovine COX-2,17%
"CC1(C)Oc2ccc(/C=C/C(=O)O)cc2O1 [Compound 29, (E)-3-(2,2-dimethylbenzo[d][1, 3]dioxol-5-yl)acrylic acid]","AAPH inhibition (%, at 100 µM)",[3],56%
same,inhibition at 100 µM,[1],46%
"CC(=O)Oc1ccc(/C=C/C(=O)O)cc1 [Compound 30, (E)-3-(4-acetoxyphenyl) acrylic acid]","AAPH inhibition (%, at 100 µM)",[3],33%
same,inhibition at 100 µM,[1],23%
COC(=O)CC[C@H](NC(=O)/C=C/c1ccc(OC(C)=O)cc1)C(=O)OC [Compound 30c],"AAPH inhibition (%, at 100 µM)",[3],16%
same,IC50,[1]; [4],100 µM
same,COX-2 inhibition (%),ovine COX-2,6%

# Reference: publication PMC11348465, “Pharmacochemical Study of Multitarget Amino Acids’ Hybrids: Design, Synthesis, In vitro, and In silico Studies” (Medicinal Chemistry (Shariqah (United Arab Emirates), 2024)
